Values belong to the compound of their own block, whether it stands above or below them.
Experiments:
TYK2 [1] = biological target: T1, TYK2 (Homo sapiens, UniProt P29597); test: HEK-Blue IFNα/β reporter assay (SEAP) for TYK2 pseudokinase inhibition; assay type: cell-based; conditions: HEK-Blue IFNα/β cells, 1 ng/mL human recombinant IFNα
Procedure: (§1) HEK-Blue™ IL-23 and IFNα/β cells with a stably-integrated cytokine receptor and STAT3 or STAT1 express STAT-inducible secreted embryonic alkaline phosphatase (SEAP) reporter gene upon cytokine stimulation. These cells are plated in DMVEM (Gibco) containing 10% heat-inactivated FBS (Gibco) and 100 U/mL PenStrep (Gibco) at 37° C. under […] conditions for 20-22 hours. The cells are then pretreated with serially diluted test compounds for 60 min prior to stimulation with either 10 ng/mL human recombinant IL-23 (Miltenyl Biotech) or 1 ng/mL human recombinant IFNα (InvivoGen) for 22-24 hours for IL-23 or 16-18 h for IFNα. SEAP induction is measured using the QUANTI Blue™ Solution (InvivoGen) according to the manufacturer's instructions. Inhibition data are calculated by comparison to no inhibitor control wells for 000 inhibition and non-stimulated control wells for 10000 inhibition. Dose response curves are generated to determine the concentration required to inhibit 5000 of cellular response (IC50) as derived by non-linear regression analysis.

TYK2 [2] = biological target: T1, TYK2; test: HEK-Blue IL-23 reporter assay (SEAP) for TYK2 pseudokinase inhibition; assay type: cell-based; parameters: HEK-Blue™ IL-23 and IFNα/β cells with a stably-integrated cytokine receptor and STAT3 or STAT1; host or cells: HEK-Blue IL-23 / HEK-Blue IFNα/β cells (HEK293 background); conditions: HEK-Blue IL-23 cells, 10 ng/mL human recombinant IL-23, SEAP reporter; read-out: IL23 IC50
Procedure: as §1

T1 sequence (P29597 whole entry): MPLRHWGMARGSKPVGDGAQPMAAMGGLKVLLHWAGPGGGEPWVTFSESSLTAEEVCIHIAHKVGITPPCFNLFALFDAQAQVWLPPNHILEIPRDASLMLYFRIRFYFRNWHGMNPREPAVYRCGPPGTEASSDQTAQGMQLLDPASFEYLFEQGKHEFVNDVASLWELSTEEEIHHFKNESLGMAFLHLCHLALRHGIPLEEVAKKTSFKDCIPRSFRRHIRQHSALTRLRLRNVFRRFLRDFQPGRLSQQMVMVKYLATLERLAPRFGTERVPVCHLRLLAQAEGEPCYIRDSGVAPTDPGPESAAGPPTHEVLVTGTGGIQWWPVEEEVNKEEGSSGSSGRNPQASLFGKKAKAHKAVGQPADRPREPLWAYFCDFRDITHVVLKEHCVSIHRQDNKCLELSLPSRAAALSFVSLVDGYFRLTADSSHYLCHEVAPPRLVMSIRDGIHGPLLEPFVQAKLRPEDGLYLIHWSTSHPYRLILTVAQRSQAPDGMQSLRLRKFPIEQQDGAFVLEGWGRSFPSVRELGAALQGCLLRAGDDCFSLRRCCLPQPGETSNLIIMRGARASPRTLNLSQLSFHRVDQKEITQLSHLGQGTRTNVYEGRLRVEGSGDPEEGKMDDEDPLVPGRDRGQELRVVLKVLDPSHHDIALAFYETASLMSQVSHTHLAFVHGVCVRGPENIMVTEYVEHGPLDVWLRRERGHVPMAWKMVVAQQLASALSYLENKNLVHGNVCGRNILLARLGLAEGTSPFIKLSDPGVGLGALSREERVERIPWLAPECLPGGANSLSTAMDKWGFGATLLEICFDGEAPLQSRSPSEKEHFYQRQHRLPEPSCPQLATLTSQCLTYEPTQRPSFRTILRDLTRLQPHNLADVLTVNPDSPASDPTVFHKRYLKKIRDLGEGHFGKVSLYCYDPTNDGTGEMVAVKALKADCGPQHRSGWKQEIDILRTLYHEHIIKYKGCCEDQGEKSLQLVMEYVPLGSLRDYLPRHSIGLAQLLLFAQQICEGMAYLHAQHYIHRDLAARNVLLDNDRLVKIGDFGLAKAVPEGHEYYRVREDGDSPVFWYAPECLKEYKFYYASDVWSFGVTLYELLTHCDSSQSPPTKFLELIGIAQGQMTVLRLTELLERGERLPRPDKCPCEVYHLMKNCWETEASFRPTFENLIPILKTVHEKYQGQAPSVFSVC

IC50 (TYK2 [1]): < 10 µM | IC50 (TYK2 [2]): > 90 µM
Structure (SMILES): O=c1[nH]n(-c2cccc(F)c2)c2cc(Nc3ccc(F)cn3)ncc12 [Compound I-60, 1-(3-fluorophenyl)-6-((5-fluoropyridin-2-yl)amino)-1,2-dihydro-3H-pyrazolo[4,3-c]pyridin-3-one]

IC50 (TYK2 [1]): 30 to 90 µM | IC50 (TYK2 [2]): < 10 µM
Structure (SMILES): CS(=O)(=O)c1ccc(-n2[nH]c(=O)c3cnc(Nc4ccc(F)cn4)cc32)cc1 [Compound I-62, 6-((5-fluoropyridin-2-yl)amino)-1-(4-(methylsulfonyl)phenyl)-1,2-dihydro-3H-pyrazolo[4,3-c]pyridin-3-one]

IC50 (TYK2 [1]): < 10 µM | IC50 (TYK2 [2]): < 10 µM
Structure (SMILES): Cc1cc(Nc2cc3c(cn2)c(=O)[nH]n3-c2ccc(C#N)cc2)nc(C)n1 [Compound I-63, 4-(6-((2,6-dimethylpyrimidin-4-yl)amino)-3-oxo-2,3-dihydro-1H-pyrazolo[4,3-c]pyridin-1-yl)benzonitrile]

IC50 (TYK2 [1]): < 10 µM | IC50 (TYK2 [2]): < 10 µM
Structure (SMILES): O=C(Nc1cc2c(cn1)c(=O)[nH]n2-c1ccc(C(F)(F)F)cc1)C1CC1 [Compound I-68, N-(3-oxo-1-(4-(trifluoromethyl)phenyl)-2,3-dihydro-1H-pyrazolo[4,3-c]pyridin-6-yl)cyclopropanecarboxamide]

IC50 (TYK2 [1]): < 10 µM | IC50 (TYK2 [2]): < 10 µM
Structure (SMILES): O=c1[nH]n(-c2ccc(OC(F)(F)F)cc2)c2cc(Nc3ccc(F)cn3)ncc12 [Compound I-70, 6-((5-fluoropyridin-2-yl)amino)-1-(4-(trifluoromethoxy)phenyl)-1,2-dihydro-3H-pyrazolo[4,3-c]pyridin-3-one]

IC50 (TYK2 [1]): < 10 µM | IC50 (TYK2 [2]): < 10 µM
Structure (SMILES): COC(=O)c1ccc(-n2[nH]c(=O)c3cnc(Nc4cc(C)nc(C)n4)cc32)cc1 [Compound I-74, methyl 4-(6-((2,6-dimethylpyrimidin-4-yl)amino)-3-oxo-2,3-dihydro-1H-pyrazolo[4,3-c]pyridin-1-yl)benzoate]

The next lines start with the compound.

Structure (SMILES): O=C(Nc1cc2c(cn1)c(=O)[nH]n2-c1cccc(F)c1)C1CC1 [Compound I-61, N-(1-(3-fluorophenyl)-3-oxo-2,3-dihydro-1H-pyrazolo[4,3-c]pyridin-6-yl)cyclopropanecarboxamide]
IC50 (TYK2 [1]): < 10 µM | IC50 (TYK2 [2]): < 10 µM

Structure (SMILES): N#Cc1ccc(-n2[nH]c(=O)c3cnc(Nc4ccc(F)cn4)cc32)cc1 [Compound I-64, 4-(6-((5-fluoropyridin-2-yl)amino)-3-oxo-2,3-dihydro-1H-pyrazolo[4,3-c]pyridin-1-yl)benzonitrile]
IC50 (TYK2 [1]): < 10 µM | IC50 (TYK2 [2]): < 10 µM

Structure (SMILES): Cc1cc(Nc2cc3c(cn2)c(=O)[nH]n3-c2ccc(C(F)(F)F)cc2)nc(C)n1 [Compound I-66, 6-((2,6-dimethylpyrimidin-4-yl)amino)-1-(4-(trifluoromethyl)phenyl)-1,2-dihydro-3H-pyrazolo[4,3-c]pyridin-3-one]
IC50 (TYK2 [1]): < 10 µM | IC50 (TYK2 [2]): < 10 µM

Structure (SMILES): O=c1[nH]n(-c2ccc(C(F)(F)F)cc2)c2cc(Nc3ccc(F)cn3)ncc12 [Compound I-67, 6-((5-fluoropyridin-2-yl)amino)-1-(4-(trifluoromethyl)phenyl)-1,2-dihydro-3H-pyrazolo[4,3-c]pyridin-3-one]
IC50 (TYK2 [1]): < 10 µM | IC50 (TYK2 [2]): < 10 µM

Structure (SMILES): O=C(Nc1cc2c(cn1)c(=O)[nH]n2-c1ccc(OC(F)(F)F)cc1)C1CC1 [Compound I-71, N-(3-oxo-1-(4-(trifluoromethoxy)phenyl)-2,3-dihydro-1H-pyrazolo[4,3-c]pyridin-6-yl)cyclopropanecarboxamide]
IC50 (TYK2 [1]): < 10 µM | IC50 (TYK2 [2]): < 10 µM

Structure (SMILES): COC(=O)c1ccc(-n2[nH]c(=O)c3cnc(Nc4ccc(F)cn4)cc32)cc1 [Compound I-75, methyl 4-(6-((5-fluoropyridin-2-yl)amino)-3-oxo-2,3-dihydro-1H-pyrazolo[4,3-c]pyridin-1-yl)benzoate]
IC50 (TYK2 [1]): < 10 µM | IC50 (TYK2 [2]): < 10 µM

Structure (SMILES): COc1cc(-n2[nH]c(=O)c3cnc(Nc4cc(C)nc(C)n4)cc32)ccc1F [Compound I-76, 6-((2,6-dimethylpyrimidin-4-yl)amino)-1-(4-fluoro-3-methoxyphenyl)-1,2-dihydro-3H-pyrazolo[4,3-c]pyridin-3-one]
IC50 (TYK2 [1]): < 10 µM | IC50 (TYK2 [2]): < 10 µM

— patent US12668594B2, “TYK2 inhibitors and uses thereof” (Sudo Biosciences Limited, priority 2020, dated 2026)
